The values below come from patent US20060179499A1, “Non-human animal models for diabetic complications and their uses” (Biomedical Research Models, Inc., priority 2004, published 2006).

For test [1], the system named is dorsal root explants and cultured neurons. As to conditions: application to dorsal root explants and cultured neurons; cited from earlier work.
For test [2], the system named is BBZDR/Wor rats. As to the kind of experiment: Environmental induction of diabetes in BBZDR/Wor rats (during initial development of the strain). The test is classed as in vivo, rat. How it is done: (§1) During the initial development of the BBZDR/Wor strain, we performed several experiments to determine whether BBZDR/Wor animals are susceptible to other environmental triggers of diabetes. […] Lean and obese BBZDR/Wor rats were treated with either the TLR3 ligand, poly I:C, or poly I:C and KRV and the incidence of diabetes was determined. […] In contrast, 35-64% of animals treated with poly I:C+KRV became diabetic. We consistently observed a higher incidence of diabetes among lean BBZDR/Wor animals as compared to obese rats. More experiments will need to be performed to determine whether these differences are statistically significant. We recently revisited the poly I:C experiments in the now, fully-inbred (>40 generations) BBZDR/Wor rat line. […] In contrast to our previous results, we observed that 40% of the lean animals and 50% of the obese females developed hyperglycemia.

In a further test the test system is BBDR/Wor rats. The conditions noted are these: cited from earlier work.
Test [3] concerns BBZDR/Wor rats. Briefly: Preliminary poly I:C experiment in fully-inbred BBZDR/Wor rat line, onset of diabetes. The test is classed as in vivo. As to conditions: fully-inbred (>40 generations) line, 5 μg/gm body weight, 3× a week. How it is done:
as §1

On to “polyinosine:polycytidylic acid [Poly I:C]”, for which the “effect on axonal outgrowth” value in test [1] is “inhibits axonal outgrowth”. In addition, the “% Diabetic With Treatment” value with BBZDR/Wor rats [2] (Lean BBZDR/Wor rats) and in the test with BBZDR/Wor rats [2] (Obese BBZDR/Wor rats) was 0% in each case. Besides, the incidence of diabetes entry with BBZDR/Wor rats [2] (Lean and obese BBZDR/Wor rats together) was “no animals treated with poly I:C alone developed diabetes”; with BBDR/Wor rats (poly I:C given just prior to KRV infection), approximately 100%. Further, the induction of hyperglycemia result in the test on BBDR/Wor rats (low doses, poly I:C alone) was “do not induce hyperglycemia”. Further, the “animals that developed hyperglycemia” value in the test on BBZDR/Wor rats [3] (lean female animals) came to 40%; with BBZDR/Wor rats [3] (obese females) it was 50%.
